Activity calls are given as the source filed them. How the calls were made is not given here.

The test deals with Nuclear receptor subfamily 5 group A member 2 (Homo sapiens) (UniProt O00482). Kind of test: LRH-1 (NR5A2) inverse agonist potency, dose response, cell-based, luminescence, late stage (AID 651976). Conditions: cell-based LRH-1 luciferase reporter. On the technique in general: Reporter assays use an easily measured gene product as a stand-in for the process of interest.
Chain of Nuclear receptor subfamily 5 group A member 2 (Homo sapiens) (O00482 whole entry, looked up): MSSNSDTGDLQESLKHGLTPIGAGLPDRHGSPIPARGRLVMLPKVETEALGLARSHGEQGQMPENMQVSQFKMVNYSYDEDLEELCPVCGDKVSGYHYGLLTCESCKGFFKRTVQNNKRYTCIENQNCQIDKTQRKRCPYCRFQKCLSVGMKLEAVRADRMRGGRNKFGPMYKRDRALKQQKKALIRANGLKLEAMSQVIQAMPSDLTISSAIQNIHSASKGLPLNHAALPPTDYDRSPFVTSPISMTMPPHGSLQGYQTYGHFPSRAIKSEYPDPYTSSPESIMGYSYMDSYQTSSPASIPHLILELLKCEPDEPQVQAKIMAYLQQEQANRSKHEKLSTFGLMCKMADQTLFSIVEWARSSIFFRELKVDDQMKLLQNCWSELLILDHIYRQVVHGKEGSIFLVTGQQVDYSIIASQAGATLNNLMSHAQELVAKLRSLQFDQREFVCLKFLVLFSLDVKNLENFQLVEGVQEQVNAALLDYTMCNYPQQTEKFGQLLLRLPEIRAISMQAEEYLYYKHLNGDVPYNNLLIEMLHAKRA

Turning to `COc1ccc(CCNC(=O)COC(=O)C23CC4CC(CC(C4)C2)C3)cc1`, the IC50 was 1.47 µM. Turning to `CC(=O)c1ccc(OC(C)C(=O)OCC(=O)NCCc2ccccc2)cc1` (stereo not drawn), the IC50 is > 35.9 µM (inactive). With `COCCn1c(C)cc(/C=C(\C#N)C(=O)OCC(=O)Nc2ccc(S(N)(=O)=O)cc2)c1C` the figure was > 35.9 µM (inactive).

For the compound `Cc1nn(CC(=O)Nc2ccc3c(c2)OCCO3)c(C)c1[N+](=O)[O-]`, the IC50 was > 35.9 µM (inactive). With `CCc1c(C)nc(SCC(=O)Nc2ccc3c(c2)OCCO3)[nH]c1=O` the figure was 7.54 µM; with `Cc1ccc(NC(=O)CSc2nc3[nH]c(=O)cc(O)c3s2)c(Br)c1`, “inactive”; with `CCOc1ccc(OCCN2C(=O)NC(Cc3c[nH]c4ccccc34)C2=O)cc1` (stereo not drawn), > 35.9 µM (inactive).

Turning to `CCc1cc(=O)oc2c(C)c(OCC(=O)NCCN3CCOCC3)ccc12`, the IC50 is > 35.9 µM (inactive). Next, `Cc1ccc(NC(=O)CSc2sc3c(O)cc(=O)[nH]c3c2C#N)c(F)c1`: > 35.9 µM (inactive); `O=C(COC(=O)c1ccc(Br)cc1)Nc1ccccc1Br`: 4.11 µM; `Cc1cc(=O)oc2c(C)c(OCC(=O)NC3CC(C)(C)NC(C)(C)C3)ccc12`: > 35.9 µM (inactive).

Consider `O=C(NCC1CCCO1)c1ccc(NC(=O)c2cccc([N+](=O)[O-])c2)cc1` (stereo not drawn), for which the IC50 is 0.386 µM. Next, `CCOc1ccc(NC(=O)CSc2nnc(C(C)C)n2CC)cc1`: > 12 µM (inactive); `CCOc1ccc(OCCC(=O)OCC(=O)Nc2ccc3c(c2)OCCO3)cc1`: > 35.9 µM (inactive). With `O=C(CSc1nnc(CNC(=O)c2c(F)cccc2F)o1)Nc1ccc2c(c1)OCCO2` the figure was 7.05 µM. Regarding `Cc1ccc(NC(=O)COC(=O)c2cc(=O)c3ccccc3o2)c(Br)c1`, the IC50 was > 35.9 µM (inactive). Turning to `O=C(COc1ccc2c3c(c(=O)oc2c1)CCCC3)NCc1ccccn1`, the IC50 was > 35.9 µM (inactive). Next, `CCCN(CC(=O)Nc1ccc(C(C)=O)cc1)CC(=O)Nc1ccccc1C`: “inactive”. With `COc1ccc(NS(=O)(=O)c2ccc(OCC(=O)N3CCN(C)CC3)cc2)cc1Cl` the figure was 5.3 µM; with `COc1ccc(C2(C)NC(=O)N(CC(=O)NCCC3=CCCCC3)C2=O)cc1OC` (stereo not drawn), > 35.9 µM (inactive); with `COc1ccc(NC(=O)CN2C(=O)NC3(CCCC3)C2=O)cc1`, > 35.9 µM (inactive). With `CCc1cc(=O)[nH]c(SCC(=O)Nc2ccc3c(c2)OCCO3)n1` the figure was > 35.9 µM (inactive). Turning to `CCOc1ccc(NC(=O)CSc2nccn(-c3ccc4c(c3)OCCO4)c2=O)cc1`, the IC50 was 0.673 µM. Next, `CCOc1ccc(NC(=O)CSc2nncc(=O)n2N)cc1`: > 12 µM (inactive); `COc1ccc(CCNC(=O)CSc2nn3c(=O)c(C)nnc3s2)cc1OC`: 1.37 µM; `COc1ccc(-n2c(N)c(C(=O)NCc3cccnc3)sc2=S)cc1`: > 35.9 µM (inactive). With `CCOc1ccc(NC(=O)COC(=O)CC2CCCCC2)cc1` the figure was > 35.9 µM (inactive); with `Cc1cc(OCC(=O)Nc2nccs2)c2c(C)cc(=O)oc2c1`, 1.25 µM; with `COc1ccc(NC(=O)COC(=O)c2c(-c3ccccc3)noc2C)cc1`, 0.677 µM.

Regarding `CCOc1ccc(NC(=O)CSc2nc3[nH]ncc3c(=O)[nH]2)cc1`, the IC50 was 1.13 µM.

For the compound `CCCc1cc(=O)oc2c(C)c(OCC(=O)NCCCn3ccnc3)ccc12`, the IC50 was > 35.9 µM (inactive). With `COC(=O)c1ccc(NC(=O)CSc2nc3ncccc3[nH]2)cc1` the figure was > 35.9 µM (inactive).

Take `CC(C)CC1(C)NC(=O)N(CC(=O)Nc2ccc3c(c2)OCCO3)C1=O` (stereo not drawn): the IC50 is > 35.9 µM (inactive).

In the case of `CC(=O)Nc1ccc(N=c2cc([N+](=O)[O-])cc(Cl)n2O)cc1`, the IC50 is 0.929 µM. For `COc1ccc(NC(=O)CSc2sc3c(O)cc(=O)[nH]c3c2C#N)c(OC)c1`, the IC50 entry is “inactive”. With `O=C(CN1C(=O)CCC1=O)Nc1ccc(Br)cc1` the figure was 2.25 µM; with `Cc1ccc2cccc(OCC(=O)NCCC3=CCCCC3)c2n1`, 1.83 µM.

As to `CCCc1cc(=O)oc2c(C)c(OCC(=O)NCCN3CCOCC3)ccc12`, the IC50 is > 35.9 µM (inactive). For `COC(=O)c1ccc(NC(=O)CN2CCN(c3ccc(Cl)cc3)CC2)cc1`, the IC50 is > 35.9 µM (inactive). With `COc1ccc(NC(=O)CSc2nc(N)c(-c3ccccc3)c(=O)[nH]2)cc1` the figure was 1.64 µM.

As for `COc1ccc(CCNC(=O)COC(=O)Cc2ccccc2[N+](=O)[O-])cc1`, the IC50 is > 35.9 µM (inactive).

Take `Cc1ccc(-c2csc(NC(=O)c3ccc([N+](=O)[O-])o3)n2)cc1`: the IC50 is > 35.9 µM (inactive). `CC1SC(C)C(=O)N(CC(=O)Nc2ccc3c(c2)OCO3)C1=O` (stereo not drawn): the IC50 is > 35.9 µM (inactive). With `Cc1sc(NC(=O)C(C)C)c(C(=O)Nc2ccccc2)c1C` the figure was 8.16 µM. With `COC(=O)c1ccc(NC(=O)CSc2nncn2-c2cccnc2)cc1` the figure was > 35.9 µM (inactive); with `COC(=O)c1ccc(NC(=O)COc2cccc(-n3cnnn3)c2)cc1`, 2.3 µM; with `COc1ccc(NC(=O)COC(=O)c2cc(S(=O)(=O)N3CCCC3)ccc2O)cc1`, > 35.9 µM (inactive). With `Cc1cc(Br)ccc1NC(=O)CSc1nnc(CN2CCOCC2)n1C`, the IC50 was 7.86 µM. On to `CC(=O)Nc1ncc(Cc2cc(Cl)ccc2Cl)s1`, for which the IC50 was 8.57 µM. With `COC(=O)c1ccc(CNC(=O)COC(=O)c2cc(Cl)nc(Cl)c2)cc1`, the IC50 was 3.04 µM. `COc1ccc(CCNC(=O)COC(=O)c2cc(Cl)nc(Cl)c2)cc1`: the IC50 is > 35.9 µM (inactive). Next, `COc1ccccc1Oc1nnnn1-c1ccc(C(N)=O)cc1`: 9.86 µM. In the case of `Cc1cccc(NC(=O)COC(=O)CN2C(=O)c3ccccc3C2=O)c1C`, the IC50 is > 35.9 µM (inactive). Take `CCn1c(SCC(=O)Nc2ccc(Cl)cc2)nnc1C1CC1`: the IC50 is > 35.9 µM (inactive). Take `COc1ccc(CC(NC(C)=O)C(=O)NC2CCN(c3nnnn3-c3ccccc3)CC2)cc1` (stereo not drawn): the IC50 is 0.779 µM. As for `CCCc1cc(=O)oc2cc(OCC(=O)NCCc3ccc(S(N)(=O)=O)cc3)ccc12`, the IC50 was > 35.9 µM (inactive). With `Cc1cccc(NC(=O)COC(=O)Cc2cccs2)c1C`, the IC50 is > 35.9 µM (inactive). With `Cc1ccc(NC(=O)COC(=O)C(NS(=O)(=O)c2ccc(Cl)cc2)C(C)O)c(Br)c1` (stereo not drawn) the figure was > 35.9 µM (inactive); with `CCCc1nnc(SCC(=O)Nc2ccc(C(=O)OCC)cc2)o1`, > 35.9 µM (inactive). Next, `O=C(COc1ccc2c3c(c(=O)oc2c1)CCC3)NCc1ccncc1`: > 35.9 µM (inactive); `O=C(CSc1nc(=O)n2cc(Cl)ccc2n1)Nc1ccc2c(c1)OCCO2`: > 35.9 µM (inactive). In the case of `Cc1cc(Br)ccc1NC(=O)CN1C(=O)CCC1=O`, the IC50 is 1.06 µM. Take `NC(=O)C1CCN(C(=O)COc2ccc3c4c(c(=O)oc3c2)CCCC4)CC1`: the IC50 was > 12 µM (inactive). Next, `Cc1ccc(NC(=O)COC(=O)C(NS(=O)(=O)c2ccc(Cl)cc2)C(C)O)cc1C` (stereo not drawn): 1.67 µM; `O=C(COC(=O)c1ccc[n+]([O-])c1)Nc1ccc([N+](=O)[O-])cc1Cl`: 7.19 µM; `COc1ccc(CCNC(=O)COC(=O)c2cccn2C)cc1`: > 35.9 µM (inactive).

On to `N#CCSc1ccccc1NC(=O)CN1C(=O)C2CC=CCC2C1=O` (stereo not drawn), for which the IC50 entry was “inactive”.

For the compound `COCC(=O)NC1CCN(CC(=O)Nc2ccc(OC)cc2[N+](=O)[O-])CC1`, the IC50 is > 35.9 µM (inactive). For the compound `O=c1[nH]c(Nc2ccc3c(c2)OCCO3)nnc1Cc1ccccc1`, the IC50 was 2.27 µM. Consider `O=C(Nc1ccccc1)c1oc2ccccc2c1NC(=O)C1CC1`, for which the half-inhibitory concentration (IC50) is 9.07 µM.

Turning to `O=C1CCCN2N=C(SCC(=O)Nc3ccc(Br)cc3)SC2=N1`, the IC50 is > 35.9 µM (inactive). Consider `O=C(OCC(=O)N1CCN(C(=O)COC(=O)c2ccc(O)cc2O)CC1)c1ccc(O)cc1O`, for which the IC50 is 1.37 µM. For `O=C(NCc1ccco1)c1nn(-c2ccccc2)c(=O)c2ccccc12`, the IC50 is 4.41 µM.

Take `O=C(CSc1nnc(CNC(=O)c2ccccc2F)o1)Nc1ccc2c(c1)OCCO2`: the IC50 was 0.732 µM. With `O=C(COC(=O)CCN1C(=O)C2CC=CCC2C1=O)NCCc1ccc(F)cc1` (stereo not drawn) the figure was > 35.9 µM (inactive). With `O=C(COC(=O)c1ccc(=O)n(Cc2ccccc2)n1)Nc1ccc2c(c1)OCCO2` the figure was > 35.9 µM (inactive). With `COc1ccc(CCNC(=O)CSc2ccc(NC(C)=O)cc2)cc1OC` the figure was 5.44 µM; with `CC(=O)c1ccc(NC(=O)C(C)O/N=C(\N)c2ccccc2)cc1` (stereo not drawn), 7.64 µM.

In general, IC50 refers to the midpoint of a concentration-inhibition curve.

The values above are taken from PubChem BioAssay AID651976 (The Scripps Research Institute Molecular Screening Center, 2013).
